Laboratory results taken from patent US20070166696A1, “Adenovirus-transfected primary cells and methods of pathway mapping” (SANOFI-AVENTIS U.S. LLC, priority 2003, published 2007).

Tests used:
Type in all cases: cell-based, human
ISRE cis-element = assay: Adenovirus luciferase reporter in iDCs; details: LPS 1 μg/ml, 2, 4, 8, 24 hours time course
Protocol: (§1) After a certain amount of time post stimulation, the cells are collected and luciferase activity is measured. Luciferase activity can be measured by an enzyme assay using a photon generating substrate and detecting photons by luminometer.
(§2) Similar experiments were performed for in vitro differentiated dendritic cells (“iDCs”). In this example, iDCs are obtained as follows: First, peripheral blood mononuclear cells (“PBMCs”) are obtained by density gradient centrifugation. One density gradient centrifugation medium is FICOLL PAQUE, commercially available from Amersham Biosciences. Monocytes are then isolated from the PBMCs by magnetic depletion of non-monocytes. Finally, iDCs are isolated from the monocytes by treatment of the monocytes with ILA and GM-GSF for 6 days.
(§3) In this example, resting cultures of isolated iDCs are then infected with a recombinant adenovirus containing the luciferase gene which is transcribed under the control of a specific cis-element. In this example, three recombinant adenovirus constructs are used to infect three separate cultures of iDCs, each construct containing one of three cis-elements: AP-1, NFκB, and ISRE. The iDCs are infected at a MOI of 100 per cell. After 16 hours of incubation post infection, the iDCs are then either mock stimulated (“C”) or stimulated with lipopolysaccharide (“LPS”) at the concentration of 1 μg/ml. At 2 hours, 4 hours, 8 hours, and 24 hours post stimulation, cells are harvested and luciferase activity is measured by luminometer. FIG. 6B contains three charts depicting the time course of AP-1, NFκB, and ISRE stimulation, respectively. […] These charts also indicate different time courses of activation.

NFκB cis-element = assay: Adenovirus luciferase reporter in iDCs; details: LPS 1 μg/ml, 2, 4, 8, 24 hours time course
Protocol: as §1, §2, §3

AP-1 cis-element [1] = assay: Adenovirus luciferase reporter in iDCs; details: LPS 1 μg/ml, 2, 4, 8, 24 hours time course
Protocol: as §1, §2, §3

AP-1 cis-element [2] = assay: Adenovirus luciferase reporter in CD14+ plate-bound macrophages; details: LPS 1 μg/ml, 24 hours post stimulation
Protocol: as §1
(§4) Similar experiments were performed for CD14^+ plate-bound macrophages. In this example, macrophages are obtained as follows: First, peripheral blood mononuclear cells (“PBMCs”) are obtained by density gradient centrifugation. One density gradient centrifugation medium is FICOLL PAQUE, commercially available from Amersham Biosciences. Monocytes are then isolated from the PBMCs by magnetic depletion of non-monocytes. Finally, macrophages are isolated from the monocytes by attachment of the monocytes to a tissue culture plate in the absence of fetal bovine serum (“FBS”).
(§5) In this example, resting cultures of isolated macrophages are then infected with a recombinant adenovirus containing the luciferase gene which is transcribed under the control of a specific cis-element. In this example, four recombinant adenovirus constructs are used to infect four separate cultures of macrophages, each construct containing one of four cis-elements: CRE, AP-1, NFκB, and ISRE. The macrophages are infected at a MOI of 100 per cell. […] At 24 hours post stimulation, cells are harvested and luciferase activity is measured by luminometer. […]

CRE cis-element = assay: as above; details: LPS 1 μg/ml, 24 hours post stimulation
Protocol: as §1, §4, §5

Q: lipopolysaccharide [LPS] was tested. Which “stimulation of the ISRE cis-element (luciferase activity)” value (ISRE cis-element) did it give?
A: Its value is “significant stimulation”.

Q: And the “stimulation of the NFκB cis-element (luciferase activity)” value (NFκB cis-element)?
A: The value was “significant stimulation”.

Q: And the “stimulation of the AP-1 cis-element (luciferase activity)” value (AP-1 cis-element [1])?
A: Its value is “significant stimulation”.

Q: And the “activation of the AP-1 cis-element (luciferase activity)” value (AP-1 cis-element [2])?
A: Its value is “significant stimulated activation”.

Q: And the “activation of the CRE cis-element (luciferase activity)” value (CRE cis-element)?
A: The value was “significant stimulated activation”.
